Data set [1] is described as follows: Concentration of dissolved triterpenoid in the aqueous cyclodextrin solution (HPLC-ESI MS). It is filed as physicochemical. The conditions noted are these: 2-hydroxypropyl-γ-cyclodextrin, 50° C. The method, then: Into the resulting colourless, viscous solution, soluble triterpene derivative (1.50 g) is added at once and the mixture is again vigorously stirred at the temperature of 50° C. […] After the triterpenoid is completely dissolved, the resulting clear solution is cooled to room temperature, filtered with a syringe filter (hydrophilic, pore size 0.22 μm) in order to be sterile and is placed in a refrigerator.
Method B: In a mixture of water (14.0 ml) and propylene glycol (6.0 ml), 2-hydroxypropyl-γ-cyklodextrin (7.00 g) is dissolved at the temperature of 50° C. under vigorous stirring. Into the resulting colourless, viscous solution, soluble triterpene derivate (1.00 g) is added at once and is again vigorously stirred at the temperature of 50° C. […] After the triterpenoid is completely dissolved, the resulting clear solution is cooled to room temperature, filtered with a syringe filter (hydrophilic, pore size 0.22 μm) in order to be sterile and is placed in a refrigerator.
Analytic Determination of the Concentration of Dissolved Triterpenoids in the Application Form and in Plasma Samples
(§1) HPLC-ESI MS technique was used or the determination of the concentration of dissolved triterpenoids. The samples were measured in one analytical batch with calibration solutions and blind control. The sample for the measurement was prepared from 50 μl of aqueous solution containing the inclusion compound by dilution with methanol to the volume of 10 ml. Subsequently, 10 μl of the sample solution after the first dilution is further diluted to 1 ml by the mobile phase. The blind control was obtained from 50 μl of pre-prepared aqueous solution of 2-hydroxypropyl-γ-cyklodextrin by dilution with methanol to 10 ml. Subsequently, 10 μl of the blind control solution after the first dilution is further diluted to 1 ml by methanol. Stock solutions of standards (concentration 0.2 mg/ml) were prepared by weighing 2.00 mg of analyte to 10 ml graduated flask and dissolution in methanol. The calibration samples were then prepared by dilution of the stock solution with mobile phase (0.4 μg/ml resp. 4 μg/ml).
The concentration was determined by comparison with standard and calculated to the original solution containing the inclusion compound.

Data set [2] in a line: Bioavailability and pharmacokinetic profile at oral administration to laboratory mice. Format: in vivo, outbred mice CD-1. The conditions noted are these: intragastric single dose 200 μl, soluble cyclodextrin formulation. As to the method: Determination of Bioavailability and Pharmacokinetic Profile at Oral Administration of the Compounds to Laboratory Mice
Soluble cyclodextrin formulations of terpenoid compounds, prepared in accordance with the aforementioned methods A or B, were administered without dilution to outbred mice CD-1 intragastrically (200 μl in a single dose) as aqueous solutions by injection syringe equipped with a gastric tube. Insoluble compounds were administered intragastrically as well (200 μl in a single dose), but in the form of aqueous suspensions in 0.5-1% carboxymethyl cellulose. In time intervals 2, 4, 6, 8, 12 and 24 h, blood was taken from the mice, the blood was centrifuged and the obtained plasma was subsequently analysed by HPLC-ESI MS technique.
as §1
The analysis was carried out at ODS Hypersil 125×2.1 mm, 5 um, SN 0745415X, Thermo EC column, ODS 4.0×3.0 mm precolumn, Phenomenex, mobile phase A—100 mmol/L aqueous solution of ammonium formate, pH is adjusted to 5 by formic acid, B—100 mmol/L methanolic solution of ammonium formate, column temperature: 25° C., linear gradient or isocratic elution, injected volume 30 μl. The concentration was determined by comparison with standard and calculated to the original solution containing the inclusion compound.

Where [3] appears, read: solution method A: water, saturated sodium hydrogencarbonate solution, ethanol.

Here are results for seven molecules from patent US8653056B2, “Method of preparation of a soluble formulation of water-insoluble pentacyclic and tetracyclic terpenoids, a soluble formulation of a pentacyclic or tetracyclic terpenoid and a pharmaceutical composition containing this soluble formulation” (Univerzita Karlova V Praze, Prirodovedecka Fakulta, priority 2006, dated 2014).

As to `C=C(C)[C@@H]1CC[C@]2(C(=O)OC)CC[C@]3(C)[C@H](CC[C@@H]4[C@@]5(C)CC[C@H](OC(=O)CCCC(=O)O)C(C)(C)[C@@H]5CC[C@]43C)[C@@H]12` [2i], the “Conc. of dissolved substance” value in data set [1] (setting [3]) turned out to be 51 mg/mL. In addition, in data set [2], the oral availability result is “prove oral availability”.

Turning to `C=C(C)[C@@H]1CC[C@]2(C(=O)OCC(=O)O)CC[C@]3(C)[C@H](CC[C@@H]4[C@@]5(C)Cc6nccnc6C(C)(C)[C@@H]5CC[C@]43C)[C@@H]12` [6a], the “Conc. of dissolved substance” value in data set [1] (setting [3]) amounted to 56 mg/mL. Also, the oral availability entry in data set [2] was “prove oral availability”.

Regarding `CC1(C)CCC23CCC4(C)C(CCC5C6(C)CC(NC(=O)CCC(=O)O)C(O)C(C)(C)C6CCC54C)C2C1OC3` (centres unmarked) [8a], the “Conc. of dissolved substance” value in data set [1] (setting [3]) was found to be 37 mg/mL. Moreover, in data set [2], the oral availability entry is reported as “prove oral availability”.

For the molecule `C=C(C=O)[C@@H]1CC[C@]2(C(=O)OCC)CC[C@]3(C)[C@H](CC[C@@H]4[C@@]5(C)CC[C@H](OC(=O)CCC(=O)O)C(C)(C)[C@@H]5CC[C@]43C)[C@@H]12` [3b], the “Conc. of dissolved substance” value in data set [1] (setting [3]) came to 55 mg/mL. In addition, the oral availability result in data set [2] is listed as “prove oral availability”.

Take `CCOC(=O)[C@@]12CC[C@]3(C)[C@H](CC[C@@H]4[C@@]5(C)CC[C@H](O[C@@H]6O[C@H](CO)[C@@H](O)[C@H](O)[C@H]6O)C(C)(C)[C@@H]5CC[C@]43C)C1=C(C(C)C)C(=O)C2` [4i]: the “Conc. of dissolved substance” value in data set [1] (solution method B: water, propylene glycol) is 56 mg/mL. In addition, the oral availability result in data set [2] is listed as “prove oral availability”.

As for `C=C(C)[C@@H]1CC[C@]2(C(=O)OCC)CC[C@]3(C)[C@H](CC[C@@H]4[C@@]5(C)CC[C@H](OC(=O)CCC(=O)O)C(C)(C)[C@@H]5CC[C@]43C)[C@@H]12` [2b], the “Conc. of dissolved substance” value in data set [1] (setting [3]) is 45 mg/mL. The oral availability result in data set [2] is listed as “prove oral availability”.

In the case of `COC(=O)[C@@]12CC[C@]3(C)[C@H](CC[C@@H]4[C@@]5(C)CC[C@H](OC(=O)CCC(=O)O)C(C)(C)[C@@H]5CC[C@]43C)C1=C(C(C)C)C(=O)C2=O` [5a], in data set [1] (setting [3]), the “Conc. of dissolved substance” value turned out to be 50 mg/mL. Moreover, in data set [2], the oral availability entry is “prove oral availability”.
